Patent publication US11760984B2, “CRISPR protein inhibitors” (THE BROAD INSTITUTE, INC., priority 2017, dated 2023)

Experiments:
[1] = molecular target: T1, SpCas9:gRNA complex (Streptococcus pyogenes serotype M1, UniProt Q99ZW2); assay: Bio-Layer Interferometry (BLI) of biotinylated compound with SpCas9:gRNA complex; assay type: binding
T1 construct: His6 (N, cleaved yes); made in house; host or cells: E. coli BL21 Star (DE3)
Method: Compound-Cas9 interaction in BLI. The experiments were performed in a 96-well format with 180 μL reaction volume using biotinylated compound BRD7087-Biotin and streptavidin sensors. 1 μM of the biotinylated compound was loaded onto the sensors for 180 s in 20 mM Tris buffer of pH 7.4, 100 mM KCl, 5 mM MgCl2, 1 mM DTT, 0.01% Tween®. The compound loaded sensors were then allowed to associate with the different concentration of SpCas9:gRNA complex (1-0.15 μM) for 300 s followed by dissociation in the reaction buffer. Reference sensor was loaded with compound and allowed to associate and dissociate in the reaction buffer alone. The response curves were fitted with a 2:1 stoichiometric model and a global fit steady-state analysis were performed using manufacturer inbuilt protocol. The experiment was performed in three replicates.
The competitive experiments were performed using Biotin-linker fragment. In this experiment, streptavidin sensors were pre-incubated with 10 μM of Biotin-linker before dipping into a solution of either 1 μM BRD7087-Biotin or reaction buffer alone. Sensors were then allowed to associate with different concentration of SpCas9:gRNA complex or buffer alone.
Compound-Cas9 interaction in BLL The experiments were performed in a 96-well format with 180 μL reaction volume using biotinylated compound BRD7087-Biotin and streptavidin sensors. […]

[2] = molecular target: SpCas9 (Streptococcus pyogenes serotype M1, UniProt Q99ZW2); assay: Cas9 nuclease activity in EGFP disruption assay (U2OS.eGFP.PEST cells); assay type: cell-based; set-up: host or cells: U2OS.eGFP-PEST; details: 10, 15, 20 μM, 24 h
Method: (§1) Cas9 Nuclease activity in EGFP disruption assay. Approximately 200,000 U2OS.eGFP-PEST cells were nucleofected with 400 ng of SpCas9 (Addgene Plasmid #43861) and 40 ng of sgRNA (pFYF1320 EGFP Site #1, Addgene Plasmid #47511) expressing plasmids along with a Td-tomato-encoding plasmid using the SE Cell Line 4D-Nucleofector™ X Kit (Lonza) according to the manufacturer's protocol. Approximately 20,000 transfected cells/well in 3 replicates were plated in a 96-well plate (Corning® 3904). Cells were allowed to grow in the indicated amount of compound or DMSO for 24 h post transfection. Cells were then fixed using 4% paraformaldehyde and imaged with the HCS NuclearMask™ Blue Stain (Life Technologies) as the nuclear counter-staining agent. Imaging was performed with an IXM 137204 ImageXpress Automated High Content Microscope (Molecular Devices) at 10× magnification under three excitation channels (blue, green and red) with 9 acquiring sites per well. Images were analyzed in the MetaXpress software and data were plotted using GraphPad Prism 6. The Z′-value was calculated following the formula: […]
Cas9 Nuclease activity in EGFP disruption assay. In some embodiments, a quantitative human cell-based reporter assay that enables rapid quantitation of targeted nuclease activities is used to characterize off-target cleavage of CRISPR protein-based RNA guided endonucleases. In this assay, the activities of nucleases targeted to a single integrated EGFP reporter gene can be quantified by assessing loss of fluorescence signal in human U2OS.EGFP cells caused by inactivating frameshift insertion/deletion (indel) mutations introduced by error prone non-homologous end-joining (NHEJ) repair of nuclease-induced double-stranded breaks (DSBs).
as §1, with “Approximately” for “Cas9 Nuclease activity in EGFP disruption assay. Approximately”

SpCas9, sequence (Q99ZW2 whole entry): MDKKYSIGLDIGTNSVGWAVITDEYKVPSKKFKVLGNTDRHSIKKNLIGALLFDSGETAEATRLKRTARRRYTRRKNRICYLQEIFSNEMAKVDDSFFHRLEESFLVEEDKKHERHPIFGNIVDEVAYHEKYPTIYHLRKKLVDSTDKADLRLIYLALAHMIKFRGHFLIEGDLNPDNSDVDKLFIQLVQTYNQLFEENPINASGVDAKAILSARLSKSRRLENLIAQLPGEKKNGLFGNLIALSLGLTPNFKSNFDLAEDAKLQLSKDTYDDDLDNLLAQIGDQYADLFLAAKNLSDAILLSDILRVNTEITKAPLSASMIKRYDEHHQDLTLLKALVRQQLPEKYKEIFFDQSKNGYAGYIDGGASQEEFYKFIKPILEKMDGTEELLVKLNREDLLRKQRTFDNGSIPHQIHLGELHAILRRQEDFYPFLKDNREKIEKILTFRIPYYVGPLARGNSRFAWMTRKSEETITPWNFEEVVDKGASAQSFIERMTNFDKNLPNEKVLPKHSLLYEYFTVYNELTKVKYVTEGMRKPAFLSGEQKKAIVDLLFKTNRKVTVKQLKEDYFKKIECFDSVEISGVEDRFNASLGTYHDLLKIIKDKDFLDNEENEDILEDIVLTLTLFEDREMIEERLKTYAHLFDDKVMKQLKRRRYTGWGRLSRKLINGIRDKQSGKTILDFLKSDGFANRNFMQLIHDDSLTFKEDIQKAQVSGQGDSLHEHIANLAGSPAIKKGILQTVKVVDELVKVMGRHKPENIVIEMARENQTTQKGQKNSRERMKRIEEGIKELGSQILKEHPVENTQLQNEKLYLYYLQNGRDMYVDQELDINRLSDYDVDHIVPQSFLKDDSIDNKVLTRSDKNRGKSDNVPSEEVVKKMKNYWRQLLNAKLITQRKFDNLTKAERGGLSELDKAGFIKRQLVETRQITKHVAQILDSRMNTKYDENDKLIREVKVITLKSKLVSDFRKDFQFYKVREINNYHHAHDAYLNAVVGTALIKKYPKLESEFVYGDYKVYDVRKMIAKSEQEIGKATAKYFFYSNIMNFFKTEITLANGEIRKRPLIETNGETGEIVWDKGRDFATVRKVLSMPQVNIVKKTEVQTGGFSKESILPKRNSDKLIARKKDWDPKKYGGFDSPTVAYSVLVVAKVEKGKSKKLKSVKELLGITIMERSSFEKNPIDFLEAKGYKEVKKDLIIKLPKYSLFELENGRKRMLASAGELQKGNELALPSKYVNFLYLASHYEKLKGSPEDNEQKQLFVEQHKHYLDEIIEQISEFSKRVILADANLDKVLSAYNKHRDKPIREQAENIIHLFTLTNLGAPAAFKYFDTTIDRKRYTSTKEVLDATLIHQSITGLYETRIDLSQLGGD
T1 sequence (Q99ZW2 whole entry, one chain of several): as the sequence (Q99ZW2 whole entry) above

| Structure (SMILES) | Kd ([1]; 1 μM BRD7087-Biotin on streptavidin sensors, SpCas9:gRNA 1-0.15 μM, read-out: dissociation constant (2:1 compound to Cas9 binding isotherm)) [nM] | BLI response signal in competitive experiment ([1]; excess (10×) of biotin to compound loading) | potency of stereoisomers in EGFP-disruption assay compared with the parent (3aR,4S,9bR) compound [2] |
| --- | --- | --- | --- |
| O=C(CCCC[C@@H]1SC[C@@H]2NC(=O)N[C@@H]21)NCCOCCOCCOCCC(=O)Nc1cccc(-c2ccc3c(c2)[C@H]2[C@H](CCN2Cc2ccncc2)[C@@H](CO)N3)c1 [biotin-conjugate of BRD7087, N-(2-(2-(2-(3-((3-((3aR,4S,9bR)-4-(Hydroxymethyl)-1-(pyridin-4-ylmethyl)-2,3,3a,4,5,9b-hexahydro-1H-pyrrolo[3,2-c]quinolin-8-yl)phenyl)amino)-3-oxopropoxy)ethoxy)ethoxy)ethyl)-5-((3aS,4S,6aR)-2-oxohexahydro-1H-thieno[3,4-d]imidazol-4-yl)pentanamide] | ~160 | no substantial response signal | – |
| OC[C@H]1Nc2ccc(-c3cccc(F)c3)cc2[C@@H]2[C@H]1CCN2Cc1ccncc1 [BRD0750, ((3aS,4S,9bS)-8-(3-Fluorophenyl)-1-(pyridin-4-ylmethyl)-2,3,3a,4,5,9b-hexahydro-1H-pyrrolo[3,2-c]quinolin-4-yl)methanol] | – | – | less potent |
| OC[C@@H]1Nc2ccc(-c3cccc(F)c3)cc2[C@@H]2[C@H]1CCN2Cc1ccncc1 [BRD5039, ((3aS,4R,9bS)-8-(3-Fluorophenyl)-1-(pyridin-4-ylmethyl)-2,3,3a,4,5,9b-hexahydro-1H-pyrrolo[3,2-c]quinolin-4-yl)methanol] | – | – | equipotent as BRD7087 |
| OC[C@@H]1Nc2ccc(-c3cccc(F)c3)cc2[C@H]2[C@@H]1CCN2Cc1ccncc1 [BRD2161, ((3aR,4R,9bR)-8-(3-Fluorophenyl)-1-(pyridin-4-ylmethyl)-2,3,3a,4,5,9b-hexahydro-1H-pyrrolo[3,2-c]quinolin-4-yl)methanol] | – | – | less potent |
